Source: patent US9309225B2, “N-((1-benzyl-1H-1,2,3-triazol-4-yl)methyl)arylamide compounds as potential anticancer agents and a process for the preparation thereof” (COUNCIL OF SCIENTIFIC & INDUSTRIAL RESEARCH, priority 2013, dated 2016)

Columns and labels:
NCI-H460 = assay: NCI sixty human tumor cell line screen, Non-small-cell-lung panel; assay type: cell-based; conditions: NCI protocol
Method: (§1) The in vitro anticancer activity studies for these N-((1-benzyl-1H-1,2,3-triazol-4-yl)methyl) arylamide analogues were carried out at the National Cancer Institute, USA.
(§2) The N-((1-benzyl-1H-1,2,3-triazol-4-yl)methyl)arylamide analogues have been tested at NCI, USA, against sixty human tumor cell lines derived from nine cancer types (leukemia, non-small cell lung cancer, colon cancer, CNS cancer, melanoma cancer, ovarian cancer, renal cancer, prostate cancer and breast cancer). For these compounds results are expressed as growth inhibition (GI50) values as per NCI protocol.

EKVX = assay: as above; assay type: cell-based; conditions: NCI protocol
Method: as §1, §2

NCI-H226 = assay: as above; assay type: cell-based; conditions: NCI protocol
Method: as §1, §2

A549/ATCC = assay: as above; assay type: cell-based; conditions: NCI protocol
Method: as §1, §2

HOP-62 = assay: as above; assay type: cell-based; conditions: HOP-62, Non-small-cell-lung, NCI protocol
Method: as §1, §2

NCI-H322M = assay: as above; assay type: cell-based; conditions: NCI protocol
Method: as §1, §2

NCI-H522 = assay: as above; assay type: cell-based; conditions: NCI protocol
Method: as §1, §2

DU-145 = assay: NCI sixty human tumor cell line screen, Prostate panel; assay type: cell-based; conditions: DU-145, Prostate, NCI protocol
Method: as §1, §2

PC-3 = assay: as above; assay type: cell-based; conditions: PC-3, Prostate, NCI protocol
Method: as §1, §2

MDA-MB-31/ATCC = assay: NCI sixty human tumor cell line screen, Breast panel; assay type: cell-based; conditions: NCI protocol
Method: as §1, §2

MDA-MB-468 = assay: as above; assay type: cell-based; conditions: MDA-MB-468, Breast, NCI protocol
Method: as §1, §2

BT-549 = assay: as above; assay type: cell-based; conditions: BT-549, Breast, NCI protocol
Method: as §1, §2

T-47D = assay: as above; assay type: cell-based; conditions: T47D, NCI protocol
Method: as §1, §2

UO-31 = assay: NCI sixty human tumor cell line screen, Renal panel; assay type: cell-based; conditions: UO-31, Renal, NCI protocol
Method: as §1, §2

SN12C = assay: as above; assay type: cell-based; conditions: NCI protocol
Method: as §1, §2

CAKI-1 = assay: as above; assay type: cell-based; conditions: CAKI-1, Renal, NCI protocol
Method: as §1, §2

A498 = assay: as above; assay type: cell-based; conditions: NCI protocol
Method: as §1, §2

TK-10 = assay: as above; assay type: cell-based; conditions: TK-10, Renal, NCI protocol
Method: as §1, §2

ACHN = assay: as above; assay type: cell-based; conditions: NCI protocol
Method: as §1, §2

RXF 393 = assay: as above; assay type: cell-based; conditions: RXF 393, Renal, NCI protocol
Method: as §1, §2

SW-620 = assay: NCI sixty human tumor cell line screen, Colon panel; assay type: cell-based; conditions: SW-620, Colon, NCI protocol
Method: as §1, §2

HCT-116 = assay: as above; assay type: cell-based; conditions: HCT-116, Colon, NCI protocol
Method: as §1, §2

HT29 = assay: as above; assay type: cell-based; conditions: HT-29, NCI protocol
Method: as §1, §2

KM12 = assay: as above; assay type: cell-based; conditions: NCI protocol
Method: as §1, §2

COLO 205 = assay: as above; assay type: cell-based; conditions: COLO 205, Colon, NCI protocol
Method: as §1, §2

LOX IMVI = assay: NCI sixty human tumor cell line screen, Melanoma panel; assay type: cell-based; conditions: NCI protocol
Method: as §1, §2

SK-MEL-5 = assay: as above; assay type: cell-based; conditions: SK-MEL-5, Melanoma, NCI protocol
Method: as §1, §2

SK-MEL-2 = assay: as above; assay type: cell-based; conditions: SK-MEL-2, Melanoma, NCI protocol
Method: as §1, §2

M14 = assay: as above; assay type: cell-based; conditions: NCI protocol
Method: as §1, §2

UACC-62 = assay: as above; assay type: cell-based; conditions: UACC-62, Melanoma, NCI protocol
Method: as §1, §2

SK-MEL-28 = assay: as above; assay type: cell-based; conditions: SK-MEL-28, Melanoma, NCI protocol
Method: as §1, §2

MDA-MB-435 = assay: as above; assay type: cell-based; conditions: MDA-MB-435, Melanoma, NCI protocol
Method: as §1, §2

U251 = assay: NCI sixty human tumor cell line screen, CNS panel; assay type: cell-based; conditions: U-251, NCI protocol
Method: as §1, §2

SF-268 = assay: NCI sixty human tumor cell line screen, CNS panel; assay type: cell-based; conditions: SF-268, CNS, NCI protocol
Method: as §1, §2

SNB-75 = assay: NCI sixty human tumor cell line screen, CNS panel; assay type: cell-based; conditions: SNB-75, CNS, NCI protocol
Method: as §1, §2

SF-295 = assay: NCI sixty human tumor cell line screen, CNS panel; assay type: cell-based; conditions: SF-295, CNS, NCI protocol
Method: as §1, §2

SF-539 = assay: NCI sixty human tumor cell line screen, CNS panel; assay type: cell-based; conditions: SF-539, CNS, NCI protocol
Method: as §1, §2

SNB-19 = assay: NCI sixty human tumor cell line screen, CNS panel; assay type: cell-based; conditions: SNB-19, CNS, NCI protocol
Method: as §1, §2

SK-OV-3 = assay: NCI sixty human tumor cell line screen, Ovarian panel; assay type: cell-based; conditions: SK-OV-3, Ovarian, NCI protocol
Method: as §1, §2

OVCAR-8 = assay: as above; assay type: cell-based; conditions: OVCAR-8, Ovarian, NCI protocol
Method: as §1, §2

OVCAR-3 = assay: as above; assay type: cell-based; conditions: OVCAR-3, Ovarian, NCI protocol
Method: as §1, §2

NCI/ADR-RES = assay: as above; assay type: cell-based; conditions: NCI protocol
Method: as §1, §2

OVCAR-4 = assay: as above; assay type: cell-based; conditions: OVCAR-4, Ovarian, NCI protocol
Method: as §1, §2

`COc1ccc(Nc2ncccc2C(=O)NCc2cn(Cc3cccc(Oc4ccccc4)c3)nn2)cc1` [Compound 1e, 2-(4-Methoxyphenylamino)-N-((1-(3-phenoxybenzyl)-1H-1,2,3-triazol-4-yl)methyl) nicotinamide] gave a GI50 (NCI-H460) of 3.52 µM, a GI50 (EKVX) of 4.16 µM and a GI50 (NCI-H226) of 3.92 µM. The GI50 (A549/ATCC) was 3.44 µM, the GI50 (HOP-62) was 5.07 µM and the GI50 (NCI-H322M) was 5.24 µM. It also gave a GI50 (NCI-H522) of 2.13 µM, a GI50 (DU-145) of 1.05 µM and a GI50 (PC-3) of 4.74 µM. It also gave a GI50 (MDA-MB-31/ATCC) of 5.35 µM, a GI50 (MDA-MB-468) of 2.42 µM and a GI50 (BT-549) of 7.16 µM. For the same compound, the GI50 (T-47D) was 4.68 µM, the melting point was 95 to 98 °C and the GI50 (UO-31) was 5.25 µM. It also gave a GI50 (SN12C) of 7.41 µM, a GI50 (CAKI-1) of 6.3 µM and a GI50 (A498) of 4.18 µM. The GI50 (TK-10) was 5.16 µM, the GI50 (ACHN) was 6.9 µM and the GI50 (RXF 393) was 3.77 µM. The GI50 (SW-620) was 3.86 µM, the GI50 (HCT-116) was 4.17 µM and the GI50 (HT29) was 3.66 µM. The GI50 (KM12) was 3.43 µM, the GI50 (COLO 205) was 2.86 µM and the GI50 (LOX IMVI) was 3.6 µM. For the same compound, the GI50 (SK-MEL-5) was 2.9 µM, the GI50 (SK-MEL-2) was 3.66 µM and the GI50 (M14) was 3.15 µM. The GI50 (UACC-62) was 3.13 µM, the GI50 (SK-MEL-28) was 3.88 µM and the GI50 (MDA-MB-435) was 1.71 µM. It also gave a GI50 (U251) of 3.91 µM, a GI50 (SF-268) of 4.59 µM and a GI50 (SNB-75) of 3.09 µM. It also gave a GI50 (SF-295) of 2.94 µM, a GI50 (SF-539) of 2.79 µM and a GI50 (SNB-19) of 3.55 µM. The GI50 (SK-OV-3) was 4.33 µM, the GI50 (OVCAR-8) was 5.96 µM and the GI50 (OVCAR-3) was 3.69 µM. For the same compound, the GI50 (NCI/ADR-RES) was 3.21 µM and the GI50 (OVCAR-4) was 5.42 µM.

For `COc1cc(Nc2ncccc2C(=O)NCc2cn(Cc3cccc(Oc4ccccc4)c3)nn2)cc(OC)c1` [Compound 1i, 2-(3,5-Dimethoxyphenylamino)-N-((1-(3-phenoxybenzyl)-1H-1,2,3-triazol-4-yl)methyl) nicotinamide], the GI50 (NCI-H460) was 3.98 µM, the GI50 (EKVX) was 6.33 µM and the GI50 (NCI-H226) was 9.82 µM. It also gave a GI50 (A549/ATCC) of 4.02 µM, a GI50 (HOP-62) of 6.31 µM and a GI50 (NCI-H322M) of 6.15 µM. The GI50 (NCI-H522) was 3.31 µM, the GI50 (DU-145) was 1.05 µM and the GI50 (PC-3) was 4.74 µM. It also gave a GI50 (MDA-MB-31/ATCC) of 5.35 µM, a GI50 (MDA-MB-468) of 2.42 µM and a GI50 (BT-549) of 7.16 µM. For the same compound, the GI50 (T-47D) was 4.68 µM, the melting point was 123 to 125 °C and the GI50 (UO-31) was 5.25 µM. It also gave a GI50 (SN12C) of 7.41 µM, a GI50 (CAKI-1) of 6.3 µM and a GI50 (A498) of 4.18 µM. It also gave a GI50 (TK-10) of 5.16 µM, a GI50 (ACHN) of 6.9 µM and a GI50 (RXF 393) of 3.77 µM. The GI50 (SW-620) was 3.88 µM, the GI50 (HCT-116) was 4.34 µM and the GI50 (HT29) was 3.88 µM. The GI50 (KM12) was 3.84 µM, the GI50 (COLO 205) was 4.12 µM and the GI50 (LOX IMVI) was 5.1 µM. It also gave a GI50 (SK-MEL-5) of 3.11 µM, a GI50 (SK-MEL-2) of 6.69 µM and a GI50 (M14) of 4.8 µM. For the same compound, the GI50 (UACC-62) was 3.86 µM, the GI50 (SK-MEL-28) was 4.14 µM and the GI50 (MDA-MB-435) was 2.23 µM. The GI50 (U251) was 4.58 µM, the GI50 (SF-268) was 5.43 µM and the GI50 (SNB-75) was 3.98 µM. It also gave a GI50 (SF-295) of 4.06 µM, a GI50 (SF-539) of 4.39 µM and a GI50 (SNB-19) of 9.64 µM. For the same compound, the GI50 (SK-OV-3) was 4.33 µM, the GI50 (OVCAR-8) was 5.96 µM and the GI50 (OVCAR-3) was 3.69 µM. The GI50 (NCI/ADR-RES) was 3.21 µM and the GI50 (OVCAR-4) was 5.42 µM.
